Legend:
PiHXT5 [1] = target: T1, PiHXT5 (Serendipita indica, UniProt G4TIR7); test: competition of […]-glucose uptake in yeast EBY.VW4000; assay type: cell-based; details: 25 μM 14C-glucose, five-fold excess of unlabelled sugar, 1 min, 30 °C; intact cells
T1 construct: gene PIIN_05137

PiHXT5 [2] = target: T1, PiHXT5; test: […]-glucose uptake in yeast EBY.VW4000, Michaelis-Menten fit; assay type: cell-based; details: pH 6.5, 50 mM potassium phosphate, 0.6 M sorbitol; intact cells; labelled compound; H+ symport; read-out: apparent Km

T1 sequence (G4TIR7 entry or part of it): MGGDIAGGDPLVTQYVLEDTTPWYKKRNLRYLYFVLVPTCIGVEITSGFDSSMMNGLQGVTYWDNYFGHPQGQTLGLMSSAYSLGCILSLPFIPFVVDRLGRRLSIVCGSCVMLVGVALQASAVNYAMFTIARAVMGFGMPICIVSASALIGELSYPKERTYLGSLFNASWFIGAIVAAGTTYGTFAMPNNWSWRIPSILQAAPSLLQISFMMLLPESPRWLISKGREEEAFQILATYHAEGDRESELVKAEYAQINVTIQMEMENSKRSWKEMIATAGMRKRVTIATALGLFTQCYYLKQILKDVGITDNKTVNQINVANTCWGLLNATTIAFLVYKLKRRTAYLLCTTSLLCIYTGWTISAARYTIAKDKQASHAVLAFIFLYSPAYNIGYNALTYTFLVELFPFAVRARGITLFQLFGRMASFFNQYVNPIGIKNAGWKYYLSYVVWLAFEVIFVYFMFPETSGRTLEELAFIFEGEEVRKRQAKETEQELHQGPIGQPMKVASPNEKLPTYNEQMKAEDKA

Row | SMILES | % of control 14C-glucose uptake at five-fold excess (PiHXT5 [1]) | Km (PiHXT5 [2])
1 | OCC1(O)OC[C@@H](O)[C@@H](O)[C@@H]1O (stereo partly drawn) [D-fructose] | PiHXT5 is able to transport Glc, Fru, Xyl, Man, and Gal with decreasing affinity | 
2 | OC[C@H]1OC(O)[C@H](O)[C@@H](O)[C@H]1O (stereo partly drawn) [D-galactose] | PiHXT5 is able to transport Glc, Fru, Xyl, Man, and Gal with decreasing affinity | 
3 | OC[C@H]1OC(O)[C@H](O)[C@@H](O)[C@@H]1O (stereo partly drawn) [D-glucose] |  | 2560 ± 180 µM
4 | OC[C@H]1OC(O)[C@@H](O)[C@@H](O)[C@@H]1O (stereo partly drawn) [D-mannose] | PiHXT5 is able to transport Glc, Fru, Xyl, Man, and Gal with decreasing affinity | 
5 | OC1OC[C@@H](O)[C@H](O)[C@H]1O (stereo partly drawn) [D-xylose] | PiHXT5 is able to transport Glc, Fru, Xyl, Man, and Gal with decreasing affinity | 
